In patent US20220339141A1, “COMBINATION TREATMENT WITH A P53 REACTIVATOR AND AN INHIBITOR OF AN ANTIAPOPTOTIC BCL-2 FAMILY PROTEIN” (Aprea Therapeutics AB, priority 2019, published 2022):
Like-named read-outs stand apart in the source and are kept apart here.

Experiments:
MV4-11 = assay: CellTiter-Glo cell viability, 72 h, single agents and combination dose matrix; assay type: cell-based; settings: Homo sapiens
Experimental: For MV4-11: IMEM (Sigma Cat. no. I3390), 10% FBS (Sigma Cat. no. F084) and 1% L-glutamine (Sigma, Cat.no. G7513).
(§1) 75 cm^2 flask (100% confluent) cells was transfer to a 15 ml tube and centrifuged at 1000 RPM for 5 min. Then supernatant was discarded, and cell pellet was resuspended in 6 ml medium. The cells were counted in the TC20 automated cell counter. 10 ml cell culture medium was prepared with 60,000 cells/ml, corresponding to 3,000 cells when 50 μl is seeded out (for MOLM-13, 12,000 cells were used). Cells were seeded in 96-well plates in column 2-12, row B-G, for blank, 100 μL cell culture medium was added. Plates were incubated overnight at 37° C.
(§2) Combenefit 2.021 was used for data analysis.
(§3) The CellTiter-Glo® Luminescent Cell Viability Assay is a homogeneous method of determining the number of viable cells in culture based on quantitation of the ATP present, an indicator of metabolically active cells. The homogeneous assay procedure involves adding the single reagent (CellTiter-Glo® Reagent) directly to cells cultured in serum-supplemented medium. The homogeneous “add-mix-measure” format results in cell lysis and generation of a luminescent signal proportional to the amount of ATP present. The amount of ATP is directly proportional to the number of cells present in culture.
(§4) The experimental dose-response surface that delineates combination effects in concentration space, is first read by the Combenefit software as a matrix of % of the control value across concentrations. […] Based on the two single agent dose response curves, a model-based combination dose-response surface is derived. This surface provides a “reference” dose-response surface for a non-synergistic (additive/independent) combination, whose characteristics are determined by the selected model (i.e., Loewe, Bliss or HSA). The experimental combination dose response surface is then compared to the model-generated one, resulting in a synergy distribution in concentration space.
(§5) This synergy distribution can be further summarized via various metrics (Di Veroli. C, Bioinformatics, 32(18), 2016, 2866-2868) as follows: • SYN_MAX—the maximum level of synergy observed. • SYN_SUM—the sum of synergy observed in concentration logarithmic space. For instance, an integrated synergy of 50 is equivalent to an extra synergistic effect of 50% which is spread over a square of 1 log×1 log in the 2-d log-concentration space.

HL-60 = assay: as above; assay type: cell-based; settings: Homo sapiens
Experimental: (§6) For cell lines KBM3, KG-1 and HL-60: IMEM (Sigma Cat. no. I3390), 20% FBS (Sigma Cat. no. F084) and 1% L-glutamine (Sigma, Cat.no. G7513).
as §1, §2, §3, §4, §5

KBM-3 = assay: as above; assay type: cell-based
Experimental: as §6, §1, §2, §3, §4, §5

KG-1 = assay: as above; assay type: cell-based; settings: Homo sapiens
Experimental: as §6, §1, §2, §3, §4, §5

MOLM-13 = assay: as above; assay type: cell-based; settings: Homo sapiens, MOLM-13, 72 h, single agent
Experimental: For MOLM-13, RPMI (R8758, Sigma Aldrich)+10% FBS (F0804, Sigma Aldrich), heat inactivated at 56° C. for 60 min.
as §1, §2, §3, §4, §5

SKM-1 = assay: as above; assay type: cell-based; settings: single agent
Experimental: For SKM-1, RPMI (R8758, Sigma Aldrich)+20% FBS (F0804, Sigma Aldrich), heat inactivated at 56° C. for 60 min.
as §1, §2, §3
The experimental dose-response surface that delineates combination effects in concentration space, is first read by the Combenefit software as a matrix of % of the control value across concentrations. […] Based on the two single agent dose response curves, a model-based combination dose-response surface is derived. This surface provides a “reference” dose-response surface for a non-synergistic (additive/independent) combination, whose characteristics are determined by the selected model (i.e., Loewe, Bliss or HSA). The experimental combination dose response surface is then compared to the model-generated one, resulting in a synergy distribution in concentration space. […]

AML cell lines [1] = assay: CellTiter-Glo cell viability, results summarised over the cell line panel; settings: for IC50: read-out: IC50 values, range over cell lines
Experimental: (§7) Plates was taken from the incubator to reach room temperature about 30 min. 100 μL CellTiter-Glo was added to all wells (except edge wells). Plates were then shaken on a plate shaker for 3 minutes at room temperature; thereafter the plates were set for 10 min at room temperature to allow cell lysis to appear. The luminescence was measured using the PerkinElmer Victor×4 instrument using the built-in program according to Instruction 11. Combenefit 2.021 was used for data analysis.
(§8) For IC50 determinations, the serial dilution of compounds was performed in cell culture medium based on 1.5- or 2-fold dilution factor. The serially diluted compounds were added to the cells and incubated for 72 h followed by cell viability test using the CTG assay. For each concentration, the current viability values were calculated and IC50 values were determined by XLfit software version 5.5.0.5 (a Microsoft Excel-based plug-in to perform regression, curve fitting and statistical analysis).
(§9) Combenefit performs combination analyses using the standard Loewe, Bliss and HSA methods. In the HSA model, the synergy score quantifies the excess over the highest single drug response. In the Loewe model, the synergy score quantifies the excess over the expected response if the two drugs are the same compound.
(§10) A “combination index” (CI) is then calculated as the measured cell viability of the sample with two co-incubated substances divided by the predicted cell viability.
(§11) If the measured cell viability for a combination of two substances is higher than the cell viability for one or both substances, the effect is considered antagonistic. If the predicted viability is very low, the quote “measured viability/predicted viability” may give false CI values.

AML cell lines [2] = system: AML cell lines
Experimental: as §7, §8, §9, §10, §11

[3] = MV4-11 (AML, p53 R248W), single agent
[4] = HL-60 (AML, p53 Null (deletion)), single agent
[5] = KBM-3 (AML, p53 WT), single agent
[6] = KG-1 (AML, p53 Intron6/splice), single agent
[7] = MOLM-13 (AML, p53 WT), separate study of Example 3
[8] = Homo sapiens, SKM-1 (MDS, p53 R248Q)

| IC50 (MV4-11; [3]) [nM] | IC50 (HL-60; [4]) [nM] | IC50 (MOLM-13; MOLM-13 (AML, p53 WT)) [nM] | IC50 (SKM-1; [8]) [nM] | IC50 (MV4-11; MV4-11, single agent, Example 4) [nM] | IC50 (HL-60; HL-60, single agent, Example 4) [nM] | IC50 (MOLM-13; MOLM-13, Example 4) [nM] | SMILES | IC50 (KBM-3; [5]) [nM] | IC50 (KG-1; [6]) [nM] | IC50 (MOLM-13; [7]) [nM] | single agent anti-proliferative activity (AML cell lines [1]) | single agent cytotoxic activity (AML cell lines [1]; MOLM-13 and SKM-1) | IC50 (AML cell lines [1]; single agent, cell lines of Table 3) [nM] | IC50 (AML cell lines [1]) [nM] | IC50 (MV4-11; MV4-11, single agent, Example 3) [nM] | IC50 (KBM-3; KBM-3, single agent, Example 3) [nM] | IC50 (SKM-1; SKM-1 (MDS/AML, p53 R248Q homo/hemizygous), separate study of Example 3) [nM] | single agent cytotoxic activity (AML cell lines [2]) | IC50 (KBM-3; KBM-3, single agent, Example 4) [nM] | IC50 (KG-1; KG-1, single agent, Example 4) [nM] |
| --- | --- | --- | --- | --- | --- | --- | --- | --- | --- | --- | --- | --- | --- | --- | --- | --- | --- | --- | --- | --- |
| 160 | 60 | 1 | 70 | – | – | – | CC1(C)CCC(CN2CCN(c3ccc(C(=O)NS(=O)(=O)c4ccc(NCC5CCOCC5)c([N+](=O)[O-])c4)c(Oc4cnc5[nH]ccc5c4)c3)CC2)=C(c2ccc(Cl)cc2)C1 [ABT-199, 2-(1H-pyrrolo[2,3-b]pyridin-5-yloxy)-4-(4-((2-(4-chlorophenyl)-4,4-dimethylcyclohex-1-enyl)methyl)piperazin-1-yl)-N-(3-nitro-4-(((tetrahydro-2H-pyran-4-yl)methyl)amino)phenylsulfonyl)benzamide] | 1360 | 1500 | 1.4 | dose-dependent anti-proliferative activity | dose-dependent cytotoxic activity | 1 to 1500 | – | – | – | – | – | – | – |
| 2500 | 8100 | 9500 | 1090 | – | – | – | COCC1(CO)C(=O)C2CCN1CC2 (stereo not drawn) [APR-246, 2-(hydroxymethyl)-2-(methoxymethyl)quinuclidin-3-one] | 3700 | 11000 | – | dose-dependent anti-proliferative activity | – | – | 1000 to 11000 | – | – | – | – | – | – |
| – | – | – | – | – | – | – | O=C1C2CCN(CC2)C1CNC(=O)C(F)(F)F (stereo not drawn) [Compound A, 2,2,2-trifluoro-N-((3-oxoquinuclidin-2-yl)methyl)acetamide] | – | – | 3600 | – | – | – | – | 1000 | 1700 | 660 | dose-dependent cytotoxic activity | – | – |
| – | – | – | – | 1.4 | 7 | 2 | COc1ccccc1-c1nccc(COc2ccccc2CC(Oc2ncnc3sc(-c4ccc(F)cc4)c(-c4ccc(OCCN5CCN(C)CC5)c(Cl)c4C)c23)C(=O)O)n1 (stereo in doubt) [MIK665, (R)-2-((5-(3-chloro-2-methyl-4-(2-(4-methylpiperazin-1-yl)ethoxy)phenyl)-6-(4-fluorophenyl)thieno[2,3-d]pyrimidin-4-yl)oxy)-3-(2-((2-(2-methoxyphenyl)pyrimidin-4-yl)methoxy)phenyl)propanoic acid] | – | – | – | dose-dependent anti-proliferative activity | – | – | 1 to 600 | – | – | – | – | 40 | 600 |
